We go through 53 compounds from the PolyMetriX glass transition set.

In the case of `*C(=O)Oc1ccc(OC(=O)c2ccc3c(c2)C(=O)N(c2ccc(Oc4ccc(N5C(=O)c6ccc(*)cc6C5=O)cc4)cc2)C3=O)c(-c2ccccc2)c1` (repeat unit), the glass transition temperature was determined as 212.00 °C.
To `*C(=O)Oc1ccc(OC(=O)c2ccc3c(c2)C(=O)N(c2ccc(Oc4ccc(N5C(=O)c6ccc(*)cc6C5=O)cc4)cc2)C3=O)cc1` (repeat unit) belongs 270.00 °C; to `*C(=O)Oc1ccc(OC(=O)c2ccc3c(c2)C(=O)N(c2ccc(Oc4ccc(Oc5ccc(N6C(=O)c7ccc(*)cc7C6=O)cc5)cc4)cc2)C3=O)cc1` (repeat unit), 230.00 °C.
The same measure for `*C(=O)Oc1ccc(OCCCCCCCCCCCCOc2ccc(OC(=O)c3ccc4c(c3)C(=O)N(c3ccc(Cc5ccc(N6C(=O)c7ccc(*)cc7C6=O)cc5)cc3)C4=O)cc2)cc1` (repeat unit): 125.00 °C; for `*CCOCCOCCN1C(=O)c2ccc(C(=O)Oc3ccc(OC(=O)c4ccc5c(c4)C(=O)N(*)C5=O)c(-c4ccccc4)c3)cc2C1=O` (repeat unit): 105.00 °C; for `*OC(=O)Oc1ccc(C(=O)Oc2ccc(OC(=O)OC3COC4C(*)COC34)cc2)cc1` (repeat unit): 115.00 °C.
Turning to `*OC(=O)Oc1ccc(S(=O)(=O)c2ccc(OC(=O)OC3CC4CC(*)CC(C3)O4)cc2)cc1` (repeat unit), the glass transition temperature is 184.00 °C.
To `*OP(=O)(Oc1ccc(Br)cc1)Oc1ccc(S(=O)(=O)c2ccc(*)cc2)cc1` (repeat unit) belongs 89.00 °C; to `*OP(=O)(Oc1ccc(OC)cc1)Oc1ccc(S(=O)(=O)c2ccc(*)cc2)cc1` (repeat unit), 81.00 °C.
The same measure for `*OP(=O)(Oc1ccc(S(=O)(=O)c2ccc(*)cc2)cc1)OC1CCCCC1` (repeat unit): 120.00 °C; for `*OP(=O)(Oc1ccc([N+](=O)[O-])cc1)Oc1ccc(S(=O)(=O)c2ccc(*)cc2)cc1` (repeat unit): 114.00 °C.
The same measure for `*O[Si](C)(Oc1ccc(*)cc1)c1ccccc1` (repeat unit): 95.00 °C; for `*Oc1ccc(-c2ccc(Oc3ccc(Oc4cc(Oc5ccc(*)cc5)ccc4CCCCCC)cc3)c3ccccc23)c2ccccc12` (repeat unit): 150.00 °C; for `*Oc1ccc(-c2ccc(Oc3ccc(Oc4ccc(Oc5ccc(*)cc5)cc4)cc3)c3ccccc23)c2ccccc12` (repeat unit): 147.00 °C.
As for `*Oc1ccc(-c2ccc(Oc3ccc(Oc4cccc(Oc5ccc(*)cc5)c4C)cc3)c3ccccc23)c2ccccc12` (repeat unit), the glass transition temperature is 156.00 °C.
To `*Oc1ccc(C(C)(C)C)cc1Oc1ccc(S(=O)(=O)c2ccc(*)cc2)cc1` (repeat unit) belongs 180.50 °C; to `*Oc1ccc(OC(=O)c2ccc(C(*)=O)cc2)cc1C1CC2CCC1C2` (repeat unit), 267.00 °C.
To `*Oc1ccc(OC(=O)c2ccc(C(*)=O)cc2Oc2ccc(Oc3ccccc3)cc2)cc1` (repeat unit) belongs 83.00 °C; to `*Oc1ccc(OC(=O)c2ccc(C(*)=O)cc2Oc2ccc3ccccc3c2)cc1` (repeat unit), 102.00 °C.
To `*Oc1ccc(OC(=O)c2ccc(C(*)=O)cc2Oc2ccccc2)cc1` (repeat unit) belongs 105.00 °C; to `*Oc1ccc(OC(=O)c2ccc(C(*)=O)cc2Sc2ccccc2)cc1` (repeat unit), 181.00 °C; to `*Oc1ccc(OC(=O)c2ccc(C(*)=O)cc2Sc2ccccc2)cc1-c1ccccc1` (repeat unit), 130.00 °C.
On to `*Oc1ccc(OC(=O)c2ccc(OCCCCCCCCCCCCOc3ccc(C(*)=O)cc3)cc2)cc1S(=O)(=O)c1ccccc1` (repeat unit), for which the glass transition temperature was found to be 82.70 °C.
To `*Oc1ccc(OC(=O)c2ccc(OCCCCCCOc3ccc(C(*)=O)cc3)cc2)cc1S(=O)(=O)c1ccccc1` (repeat unit) belongs 105.50 °C; to `*Oc1ccc(OC(=O)c2cccc(C(*)=O)c2)cc1` (repeat unit), 186.00 °C.
As to `*Oc1ccc(Oc2ccc(/C=N/CCCCCC/N=C/c3ccc(*)cc3)cc2)cc1` (repeat unit), the glass transition temperature was found to be 111.00 °C.
To `*Oc1ccc(S(=O)(=O)c2ccc(Oc3c(C)cc(C(C)(C)c4cc(C)c(*)c(C)c4Br)c(Br)c3C)cc2)cc1` (repeat unit) belongs 275.40 °C.
For the compound `*Oc1ccc(S(=O)(=O)c2ccc(Oc3cc(C)c(C(c4cc(C(C)C)c(*)cc4C)c4ccccc4C(=O)O)cc3C(C)C)cc2)cc1` (repeat unit), the glass transition temperature worked out at 240.00 °C.
To `*Oc1ccc(S(=O)(=O)c2ccc(Oc3ccc4c(=O)n5c6cc(Oc7ccc8c(c7)nc7c9ccc(*)c%10cccc(c(=O)n87)c%109)ccc6nc5c5cccc3c45)cc2)cc1` (repeat unit) belongs 374.00 °C.
To `*Oc1ccc(S(=O)(=O)c2ccc3cc(S(=O)(=O)c4ccc(Oc5c(C)cc(-c6cc(C)c(*)c(C)c6C)c(C)c5C)cc4)ccc3c2)cc1` (repeat unit) belongs 300.00 °C; to `*Oc1ccc2cc(Oc3ccc(C(=O)c4ccc(*)cc4)cc3)ccc2c1` (repeat unit), 247.00 °C.
On to `*Oc1cccc(Oc2ccc(C(=O)c3ccc(*)cc3)cc2)c1` (repeat unit), for which the glass transition temperature stood at 125.00 °C.
In the case of `*Oc1cccc(Oc2ccc(C(=O)c3ccc(P(=O)(c4ccccc4)c4ccc(C(=O)c5ccc(*)cc5)cc4)cc3)cc2)c1` (repeat unit), the glass transition temperature turned out to be 201.00 °C.
In the case of `*c1cc(C(C)C)c(Oc2ccc(S(=O)(=O)c3ccc(Oc4cc(C)c(C5(*)OC(=O)c6ccccc65)cc4C(C)C)cc3)cc2)cc1C` (repeat unit), the glass transition temperature is 230.00 °C.
The same measure for `*c1ccc(C(=O)Oc2ccc(OC(=O)c3ccc(N4C(=O)CC(SCCOCCSC5CC(=O)N(*)C5=O)C4=O)cc3)cc2)cc1` (repeat unit): 166.00 °C; for `*c1ccc(N2C(=O)c3ccc(Oc4ccc(Oc5ccc(P(=O)(c6ccccc6)c6ccc(Oc7ccc(Oc8ccc9c(c8)C(=O)N(*)C9=O)cc7)cc6)cc5)cc4)cc3C2=O)cc1` (repeat unit): 220.00 °C.
To `*c1ccc(Oc2ccc(-c3ccc(Oc4ccc(N5C(=O)c6ccc(Oc7ccc(Oc8ccc9c(c8)C(=O)N(*)C9=O)cc7)cc6C5=O)cc4)cc3)cc2)cc1` (repeat unit) belongs 230.00 °C; to `*c1ccc(Oc2ccc(C(c3ccc(Oc4ccc(N5C(=O)c6ccc(Oc7ccc(Sc8ccc(Oc9ccc%10c(c9)C(=O)N(*)C%10=O)cc8)cc7)cc6C5=O)cc4)cc3)(C(F)(F)F)C(F)(F)F)cc2)cc1` (repeat unit), 217.50 °C; to `*c1ccc(Oc2ccc(N3C(=O)c4ccc(Oc5ccc(S(=O)(=O)c6ccc(Oc7ccc8c(c7)C(=O)N(*)C8=O)cc6)cc5)cc4C3=O)cc2)cc1` (repeat unit), 260.00 °C.
The same measure for `*c1ccc(Oc2ccc(N3C(=O)c4ccc(Oc5ccc(Sc6ccc(Oc7ccc8c(c7)C(=O)N(*)C8=O)cc6)cc5)cc4C3=O)cc2)cc1` (repeat unit): 212.00 °C; for `*c1ccc(Oc2ccc(N3C(=O)c4cccc(Oc5ccc(Oc6ccc(Oc7cccc8c7C(=O)N(*)C8=O)cc6)cc5)c4C3=O)cc2)cc1` (repeat unit): 239.00 °C.
As to `*c1ccc(Oc2ccc(N3C(=O)c4cccc(Oc5ccc(Sc6ccc(Oc7cccc8c7C(=O)N(*)C8=O)cc6)cc5)c4C3=O)cc2)cc1` (repeat unit), the glass transition temperature was 234.00 °C.
For the compound `*c1ccc(Oc2ccc(Oc3ccc(N4C(=O)c5cccc(Oc6c(C)cc(Cc7cc(C)c(Oc8cccc9c8C(=O)N(*)C9=O)c(C)c7)cc6C)c5C4=O)c(C)c3)cc2)cc1C` (repeat unit), the glass transition temperature was 238.00 °C.
The same measure for `*c1ccc(Oc2ccc(Oc3ccc(N4C(=O)c5cccc(Oc6ccc(C(C)(C)c7ccc(Oc8cccc9c8C(=O)N(*)C9=O)cc7)cc6)c5C4=O)c(C)c3)cc2)cc1C` (repeat unit): 222.00 °C; for `*c1ccc(Oc2ccc(Sc3ccc(Oc4ccc(N5C(=O)c6ccc(Oc7ccc(Oc8ccc9c(c8)C(=O)N(*)C9=O)cc7)cc6C5=O)cc4)cc3)cc2)cc1` (repeat unit): 201.00 °C.
To `*c1ccc(Oc2ccc(Sc3ccc(Oc4ccc(N5C(=O)c6ccc(Oc7ccc(Sc8ccc(Oc9ccc%10c(c9)C(=O)N(*)C%10=O)cc8)cc7)cc6C5=O)cc4)cc3)cc2)cc1` (repeat unit) belongs 186.00 °C; to `*c1ccc(Oc2cccc(Oc3ccc(N4C(=O)c5ccc(Oc6ccc(S(=O)(=O)c7ccc(Oc8ccc9c(c8)C(=O)N(*)C9=O)cc7)cc6)cc5C4=O)cc3)c2)cc1` (repeat unit), 219.00 °C; to `*c1ccc(Oc2cccc(Oc3ccc(N4C(=O)c5ccc(Oc6ccc(Sc7ccc(Oc8ccc9c(c8)C(=O)N(*)C9=O)cc7)cc6)cc5C4=O)cc3)c2)cc1` (repeat unit), 178.00 °C.
To `*c1ccc(Oc2cccc(Oc3ccc(N4C(=O)c5cccc(Oc6ccc(C(=O)c7ccc(Oc8cccc9c8C(=O)N(*)C9=O)cc7)cc6)c5C4=O)cc3)c2)cc1` (repeat unit) belongs 216.00 °C; to `*c1cccc(N2C(=O)c3ccc(Oc4ccc(Oc5ccc6c(c5)C(=O)N(*)C6=O)cc4)cc3C2=O)c1` (repeat unit), 255.00 °C.
The compound `*c1cccc(N2C(=O)c3cccc(Oc4ccc(C(=O)c5ccc(Oc6cccc7c6C(=O)N(*)C7=O)cc5)cc4)c3C2=O)c1` (repeat unit) showed a glass transition temperature of 248.00 °C.
The same measure for `*c1cccc(N2C(=O)c3cccc(Oc4ccc(Sc5ccc(Oc6cccc7c6C(=O)N(*)C7=O)cc5)cc4)c3C2=O)c1` (repeat unit): 231.00 °C; for `*c1cccc(S(=O)(=O)c2cccc(N3C(=O)c4ccc(Oc5ccc(Sc6ccc(Oc7ccc8c(c7)C(=O)N(*)C8=O)cc6)cc5)cc4C3=O)c2)c1` (repeat unit): 231.00 °C.
